Results on 11 compounds are retold here after ChEMBL document CHEMBL1129228, “Naphtho-fused azepines as potent growth hormone secretagogues” (Bioorg Med Chem Lett, 1997).

Square brackets hold non-standard residues; d marks the D form. Peptide text beside a SMILES is read from it. ξ: configuration not given here. 1Nal = N[C@@H](Cc1cccc2ccccc12)C(=O)O; ξ1Nal = NC(Cc1cccc2ccccc12)C(=O)O; 3Amb = NCc1cccc(C(=O)O)c1

For one series, the species on record is Rattus norvegicus. The series can be described thus: Compound was evaluated for its potency using rat pituitary cell assay. Type of series: functional. To be noted: Pituitary gland cell, read-out: ED50 (the source's name).
Series [1] can be described thus: Oral bioavailability determined in rats. Conditions: rat, in vivo. The format is ADME, organism-based.

With `Cc1nnc(-c2cscc2-c2ccc(CN3C(=O)[C@H](NC(=O)CC(C)(C)N)CCc4c3ccc3ccccc43)cc2)o1`, the EC50 in the series listed under Rattus norvegicus is 0.037 µM.
Broadly, the bioavailability is dose-corrected exposure relative to a reference, in per cent. Take `CC(C)(N)CC(=O)N[C@@H]1CCc2c(ccc3ccccc23)N(Cc2ccc(-c3ccccc3-c3nn[nH]n3)cc2)C1=O`: in the series filed under Rattus norvegicus, the EC50 came out at 0.004 µM. The bioavailability in series [1] is under 5%.
Take `CC(C)(N)C(=O)N[C@@H]1CCc2ccccc2N(Cc2ccc(-c3ccccc3-c3nn[nH]n3)cc2)C1=O`: the EC50 in the series filed under Rattus norvegicus amounted to 0.03 µM.
The same measure, in the same setting: as for `CC(C)(N)CC(=O)N[C@@H]1CCc2ccccc2N(Cc2ccccc2)C1=O`, the figure is 1 µM; as for `CC(C)(N)CC(=O)N[C@@H]1CCc2ccccc2N(Cc2ccc(-c3ccccc3)cc2)C1=O`, 1.7 µM; as for `CC(C)(N)CC(=O)N[C@@H]1CCc2ccccc2N(Cc2ccc(-c3ccccc3-c3nn[nH]n3)cc2)C1=O`, 0.125 µM.
The same measure, in the same setting: the same measure for `CC(C)(N)CC(=O)N[C@@H]1CCc2c(ccc3ccccc23)N(Cc2ccccc2)C1=O`: 8.5 µM; for `NC1(C(=O)N[C@@H]2CCc3c(ccc4ccccc34)N(Cc3ccc(-c4ccccc4-c4nn[nH]n4)cc3)C2=O)CC1`: 0.175 µM; for `Cc1nnc(-c2cscc2-c2ccc(CN3C(=O)[C@H](NC(=O)CC(C)(C)N)CCc4ccccc43)cc2)o1`: 0.062 µM.
On the same count and under the same terms, as for `C[C@H](N)C(=O)N[C@@H](Cc1ccccc1)C(=O)N[C@@H](Cc1cccc2ccccc12)C(=O)N[C@@H](Cc1ccccc1)C(=O)N[C@@H](CCCCN)C(N)=O` (H-AF[1Nal]FK-NH2), the figure is 0.002 µM; as for `NCCCC[C@H](NC(=O)[C@H](Cc1ccccc1)NC(=O)C(Cc1cccc2ccccc12)NC(=O)c1cccc(CN)c1)C(N)=O` (some centres not stated) (H-[3Amb][ξ1Nal]FK-NH2), 0.007 µM.
